Results: patent US7166635B2, “3-imino-2-indolones for the treatment of depression and/or anxiety” (H. Lundbeck A/S, priority 2002, dated 2007)

Target: T1, human GalR3 receptor (Homo sapiens, UniProt O60755)
T1 construct: expressed in transfected cells; membranes
T1 sequence (O60755 1-368): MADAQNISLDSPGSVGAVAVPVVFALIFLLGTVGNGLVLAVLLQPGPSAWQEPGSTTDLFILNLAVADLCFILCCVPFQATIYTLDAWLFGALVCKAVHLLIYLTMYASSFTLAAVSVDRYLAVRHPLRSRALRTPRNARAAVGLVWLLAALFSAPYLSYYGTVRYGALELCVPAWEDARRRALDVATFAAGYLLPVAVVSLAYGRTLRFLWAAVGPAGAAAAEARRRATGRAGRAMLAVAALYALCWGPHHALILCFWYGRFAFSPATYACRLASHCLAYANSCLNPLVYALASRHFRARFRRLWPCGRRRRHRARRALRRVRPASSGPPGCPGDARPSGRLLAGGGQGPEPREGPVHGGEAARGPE
Experiment: Radioligand binding at cloned human GalR3 receptor
Settings: Binding Data; membranes of LM(tk-) cells stably transfected with human GalR3
Experimental: The present invention provides for a method of determining the binding affinity of a GalR3 antagonist, wherein the GalR3 antagonist is dissolved in a “suitable solvent”. A “suitable solvent” means one which permits the measurement of binding affinity of the GalR3 antagonist to the human GalR3 receptor at concentrations less than 1 μM, preferably less than 100 nM. Examples of solvents include, but are not limited to, DMSO, ethanol, N,N-dimethylacetamide, or water. For indolones, the preferred solvent is 3% DMSO (final concentration in the assay). For any other type of compounds, the preferred solvent is the solvent which permits the measurement of binding affinity of a GalR3 antagonist at the lowest concentration.
COS-7 cells were grown on 150 mm plates in D-MEM with supplements (Dulbecco's Modified Eagle Medium with 10% bovine calf serum, 4 mM glutamine, 100 units/ml penicillin, 100 μg/ml streptomycin) at 37° C. with 5% CO2. Stock plates of COS-7 cells were trypsinized and split 1:6 every 3–4 days. Human embryonic kidney 293 cells were grown on 150 mm plates in D-MEM with supplements (minimal essential medium) with Hanks' salts and supplements (Dulbecco's Modified Eagle Medium with 10% bovine calf serum, 4 mM glutamine, 100 units/ml penicillin, 100 μg/ml streptomycin) at 37° C. with 5% CO2. Stock plates of 293 cells were trypsinized and split 1:6 every 3–4 days. Mouse fibroblast LM(tk-) cells were grown on 150 mm plates in D-MEM with supplements (Dulbecco's Modified Eagle Medium with 10% bovine calf serum, 4 mM glutamine, 100 units/mL penicillin, 100 μg/mL streptomycin) at 37° C. with 5% CO2. Stock plates of LM(tk-) cells were trypsinized and split 1:10 every 3–4 days. Chinese Hamster Ovary (CHO) cells were grown on 150 mm plates in HAM's F12 medium with (HAM's F-12 with 10% bovine calf serum, 4 mM glutamine, 100 units/mL penicillin, 100 μg/mL streptomycin) at 37° C. with 5% CO2. Stock plates of CHO cells were trypsinized and split 1:8 every 3–4 days. LM(tk-) cells were stably transfected with the human GalR3 receptor.
cDNAs for the human and rat GalR3 receptors were transfected with a G-418 resistant gene into the mouse fibroblast LM(tk-) cell line by a calcium phosphate transfection method (Cullen, 1987).
Membranes were harvested from stably transfected LM(tk-) cells. Adherent cells were washed twice in ice-cold phosphate buffered saline (138 mM NaCl, 8.1 mM Na2HPO4, 2.5 mM KCl, 1.2 mM KH2PO4, 0.9 mM CaCl2, 0.5 mM MgCl2, pH 7.4) and lysed by sonication in ice-cold sonication buffer (20 mM Tris-HCl, 5 mM EDTA, pH 7.7). Large particles and debris were cleared by low speed centrifugation (200×g, 5 min, 4° C.). Membranes were collected from the supernatant fraction by centrifugation (32,000×g, 18 min, 4° C.), washed with ice-cold hypotonic buffer, and collected again by centrifugation (32,000×g, 18 min, 4° C.). The final membrane pellet was resuspended by sonication into a small volume of ice-cold binding buffer (˜1 ml for every 5 plates: 10 mM NaCl, 20 mM HEPES, 0.22 mM KH2PO4, 1.26 mM CaCl2, 0.81 mM MgSO4, pH 7.4). Protein concentration was measured by the Bradford method (Bradford, 1976) using Bio-Rad Reagent, with bovine serum albumin as a standard. Membranes were held on ice for up to one hour and used fresh, or flash frozen and stored in liquid nitrogen. Membranes were prepared similarly from CHO cells.
The methods to obtain the cDNA of the receptors, express said receptors in heterologous systems, and carry out assays to determine binding affinity are described as follows.
Binding assays were performed according to the following published method: human GALR3 (PCT International Publication No. WO 98/15570).

Ki | SMILES
20 nM | COc1ccc(N2C(=O)C(=Nc3ccc(Cl)c(Cl)c3)c3cc(Cl)ccc32)cn1 (racemic) [Example 3, 5-CHLORO-3-[(3,4-DICHLOROPHENYL)IMINO]-1-(6-METHOXY-3-PYRIDINYL)-1,3-DIHYDRO-2H-INDOL-2-ONE]
72 nM | O=C1/C(=N\c2ccc3c(c2)OC(F)(F)O3)c2ccccc2N1c1ccc(O)cc1 [Example 1, 3-[(2,2-DIFLUORO-1,3-BENZODIOXOL-5-YL)IMINO]-1-(4-HYDROXYPHENYL)-1,3-DIHYDRO-2H-INDOL-2-ONE]
68 nM | O=C1/C(=N\c2cccc(C(F)(F)F)c2)c2ccccc2N1c1ccccc1O [Example 8, 1-(2-HYDROXYPHENYL)-3-{[3-(TRIFLUOROMETHYL)PHENYL]IMINO}-1,3-DIHYDRO-2H-INDOL-2-ONE]
27 nM | O=C1/C(=N\c2ccc(Cl)c(Cl)c2)c2ccccc2N1c1ccc(O)cc1 [Example 5, 3-[(3,4-DICHLOROPHENYL)IMINO]-1-(4-HYDROXYPHENYL)-1,3-DIHYDRO-2H-INDOL-2-ONE]
58 nM | O=C1/C(=N\c2cccc(C(F)(F)F)c2)c2cc(O)ccc2N1c1ccccc1 [Example 9, 5-HYDROXY-1-PHENYL-3-{[3-(TRIFLUOROMETHYL)PHENYL]IMINO}-1,3-DIHYDRO-2H-INDOL-2-ONE]
15 nM | COc1ccc(N2C(=O)/C(=N\c3ccc(Cl)c(Cl)c3)c3ccccc32)cn1 [Example 2, 3-[(3,4-DICHLOROPHENYL)IMINO]-1-(6-METHOXY-3-PYRIDINYL)-1,3-DIHYDRO-2H-INDOL-2-ONE]
28 nM | O=C1/C(=N\c2cccc(C(F)(F)F)c2)c2ccccc2N1c1cccc(O)c1 [Example 7, 1-(3-HYDROXYPHENYL)-3-{[3-(TRIFLUOROMETHYL)PHENYL]IMINO}-1,3-DIHYDRO-2H-INDOL-2-ONE]
41 nM | O=C1/C(=N\c2cc(F)cc(F)c2)c2ccccc2N1c1ccc(O)cc1 [Example 6, 3-[(3,5-DIFLUOROPHENYL)IMINO]-1-(4-HYDROXYPHENYL)-1,3-DIHYDRO-2H-INDOL-2-ONE]
55 nM | O=C1/C(=N\c2cccc(C(F)(F)F)c2)c2ccc(O)cc2N1c1ccccc1 [Example 4, 6-HYDROXY-1-PHENYL-3-{[3-(TRIFLUOROMETHYL)PHENYL]IMINO}-1,3-DIHYDRO-2H-INDOL-2-ONE]
31 nM | COc1ccc(N2C(=O)/C(=N\c3cccc(C(F)(F)F)c3)c3ccccc32)cn1 [Example 10, 3-[(3-TRIFLUOROMETHYLPHENYL)IMINO]-1-(6-METHOXY-3-PYRIDINYL)-1,3-DIHYDRO-2H-INDOL-2-ONE]
